In US12295397B2, “Dietary peptides” (Diet4Life APS, priority 2015, dated 2025):
No end group written: not given here.

Columns and labels:
pepsin = pepsin (Homo sapiens, UniProt P0DJD8); test: Pepsin digestion of meat, resistance of peptide to pepsin degradation; type: in vitro ADME; details: present in proteolytic digests
Protocol: Minced meat is diluted 1-10 times with distilled water, adjusted to pH 1-3 with hydrochloric acid, and incubated with 0.01-10% pepsin (w/w) at 4-40° C. for ½-12 h with adequate mixing. Insoluble material is removed by centrifugation at 100-1000×g for 3-30 min, and supernatant is neutralized with NaOH. Using sterile conditions, low molecular weight peptides in supernatant are recovered by tangential ultrafiltration at 4-40° C. for ½-12 h, and excess water is evaporated at 25-50° C. for up to 12 h. The concentrated dialysate is tested for bioactivity with cells and used for further purification by HPLC.

[1] = Stability of peptides in small intestine homogenate, remaining activity read out in intestinal cells; type: in vitro ADME, mice; details: fold more stable than NT(8-13)
Protocol: Small intestines from 20 Swiss-Webster males were homogenized in 350 ml Dulbecco's phosphate-buffered saline (PBS) (pH 7.4) (ThermoFischer Scientific, Denmark) with a IKA® basic 18 Ultra-Turrax tissue homogenizer set a speed 5 followed by filtration using 100 μm nylon mesh filter. Protein concentration was 6 mg/ml using the bicinconinic acid assay (ThermoFischer Scientific, Denmark) and bovine serum albumin as standard. The intestine homogenate was diluted 10 times in HBSS containing 25 mM HEPES (pH 7.4), and further diluted 30×, 90×, 270×, 810× or 2430× before incubation with peptides. All solutions were prewarmed to 37° C. before mixing with peptide solutions.
Peptides were incubated at 10^−5 M with dilutions of small intestine homogenate at 37° C. for 90 minutes with shaking. Reactions were stopped by addition of 1 M phosphoric acid (final 0.4 M, pH ˜1.2). Each peptide incubation mix was then neutralized with NaOH to pH 7.2-7.4 and immediately tested for activity in intestinal cells. […]
(§1) Notes for Tables 1) Stability in serum is expressed as fraction of peptide activity left after 10 min of incubation in serum at 37° C. compared with undigested sample as described in Examples. 2) Stability in intestine is expressed as % activity left after 30 min incubation in intestine homogenate at 37° C. as described in Examples.

[2] = Stability of peptides in Fetal Bovine Serum, remaining activity read out in intestinal cells; type: in vitro ADME; details: fold more stable than NT(8-13)
Protocol: All peptides were incubated at 10^−5 M with Fetal Bovine Serum (FBS; final concentration of 66.7%) (Sigma Aldrich, Denmark) at 37° C. for 3 hours. The peptide degradation was terminated using 1 M phosphoric acid (final 0.4 M, pH ˜1.2) and neutralized to pH 7.2-7.4 with NaOH before testing activity in intestinal cells. As for small intestine homogenates, a zero degradation control was included for each peptide.
DC7-2, NT, DKPYIL (SEQ ID NO: 8) and NT-(8-13) (final concentration of 10^-6 M) were incubated either with FBS or with 270× diluted intestinal homogenate at 37° C. for various time points with shaking. Degradation was stopped with 1 M phosphoric acid and the samples were subsequently neutralized and immediately tested with intestinal cells as described above. Control for zero degradation was included for each peptide as above. […]
as §1

Sequence of pepsin (P0DJD8 63-388): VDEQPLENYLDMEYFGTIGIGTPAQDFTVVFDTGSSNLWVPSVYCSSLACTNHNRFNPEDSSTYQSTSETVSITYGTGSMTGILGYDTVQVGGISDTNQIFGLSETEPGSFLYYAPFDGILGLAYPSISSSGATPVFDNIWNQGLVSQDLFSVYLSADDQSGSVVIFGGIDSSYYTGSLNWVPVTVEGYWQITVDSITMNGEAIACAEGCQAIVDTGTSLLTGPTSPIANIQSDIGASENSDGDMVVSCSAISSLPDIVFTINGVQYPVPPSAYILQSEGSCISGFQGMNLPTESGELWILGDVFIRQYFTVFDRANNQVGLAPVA

Resistance to pepsin degradation (pepsin) | Stability in intestine homogenate relative to neurotensin (8-13) RRPYIL [1] | Stability in serum relative to neurotensin (8-13) RRPYIL [2] | Substance
resistant to pepsin degradation | – | – | ASDKPYIL [Peptide 36036, A SDKPYIL]
– | 100-1000 × | around 100 times | DKPYIL [Peptide 35978, D KPYIL]
